For data set [1], the target named is T1, Amine oxidase [flavin-containing] B (Homo sapiens, UniProt P27338).
T1 sequence (P27338 whole entry): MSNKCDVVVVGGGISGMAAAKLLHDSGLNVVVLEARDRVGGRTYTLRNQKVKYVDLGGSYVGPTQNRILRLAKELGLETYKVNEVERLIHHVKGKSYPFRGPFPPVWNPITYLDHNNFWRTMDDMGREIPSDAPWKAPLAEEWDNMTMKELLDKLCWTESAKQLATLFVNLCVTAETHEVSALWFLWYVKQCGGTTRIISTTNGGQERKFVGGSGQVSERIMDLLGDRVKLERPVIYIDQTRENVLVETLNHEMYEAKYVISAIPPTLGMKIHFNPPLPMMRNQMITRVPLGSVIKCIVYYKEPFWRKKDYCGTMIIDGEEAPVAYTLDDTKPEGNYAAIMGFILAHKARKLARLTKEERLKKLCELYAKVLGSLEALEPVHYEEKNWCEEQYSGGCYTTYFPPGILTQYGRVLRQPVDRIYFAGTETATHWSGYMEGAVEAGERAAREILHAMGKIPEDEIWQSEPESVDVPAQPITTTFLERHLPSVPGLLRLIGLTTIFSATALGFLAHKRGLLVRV
Briefly: Inhibition of human MAO-B.

Data set [2] is described as follows: Selectivity index, ratio of IC50 for human MAO-A to IC50 for human MAO-B.
Data set [3] has as its target T1, Amine oxidase [flavin-containing] B. Briefly: Inhibition of human MAO-A. Type of data set: ADME.
Data set [4] relates to SH-SY5Y. The data set is described as follows: Cytotoxicity against human SH-SY5Y cells at 5 to 50 uM after 24 hrs by MTT assay. Type of data set: cell-based. To be noted: dose 5-50 µM. A general note: Tetrazolium assays rely on reduction of a dye to a coloured formazan, in cell work by metabolically active cells.
For data set [5], the system named is BV-2. Briefly: Cytotoxicity against C57/BL6 mouse BV-2 cells at 5 to 50 uM after 24 hrs by MTT assay. Type of data set: cell-based. To be noted: bv-2, 24 h, dose 5-50 µM.
Data set [6] concerns BV-2. The data set is described as follows: Cytotoxicity against C57/BL6 mouse BV-2 cells assessed as induction of cell death at 50 uM after 24 hrs by MTT assay relative to control. Type of data set: cell-based. To be noted: bv-2, 24 h.
For data set [7], the system named is SH-SY5Y. The data set is described as follows: Cytotoxicity against human SH-SY5Y cells assessed as induction of cell death at 50 uM after 24 hrs by MTT assay relative to control. Type of data set: cell-based.
For data set [8], the system named is BV-2. Briefly: Neuroprotective activity against LPS-induced oxidative stress in C57/BL6 mouse BV-2 cells assessed as decrease in ROS level at < 20 uM after 24 hrs by DCFH-DA dye based fluorescence assay. Type of data set: functional, cell-based. To be noted: dose microM <20, time 24.0 hrs.
The subject of data set [9] is SH-SY5Y. The data set is described as follows: Neuroprotective activity against LPS-induced oxidative stress in human SH-SY5Y cells assessed as decrease in ROS level at < 20 uM after 24 hrs by DCFH-DA dye based fluorescence assay. Type of data set: functional, cell-based. To be noted: dose microM <20, time 24.0 hrs.
The test system of data set [10] is Mus musculus. The data set is described as follows: Neuroprotective activity against MPTP-induced C57BL/6J mouse model of Parkinson's disease assessed as increase in average speed at 0.2 mg/kg, ip pretreated for 7 consecutive days followed by MPTP challenge and further treated with compound until day 14 by open field test. To be noted: time 14.0 day. It is filed as functional, organism-based.

The test system of data set [11] is Mus musculus. Briefly: Neuroprotective activity against MPTP-induced C57BL/6J mouse model of Parkinson's disease assessed as increase in total distance at 0.2 mg/kg, ip pretreated for 7 consecutive days followed by MPTP challenge and further treated with compound until day 14 by open field test. To be noted: time 14.0 day. It is filed as functional, organism-based.

Data set [12] concerns Mus musculus. The data set is described as follows: Neuroprotective activity against MPTP-induced C57BL/6J mouse model of Parkinson's disease assessed as decrease in immobility time at 0.2 mg/kg, ip pretreated for 7 consecutive days followed by MPTP challenge and further treated with compound until day 14 by open field test. It is filed as functional, organism-based. To be noted: time 14.0 day.

Experimental findings from ChEMBL document CHEMBL4811259, “Novel 1-(prop-2-yn-1-ylamino)-2,3-dihydro-1H-indene-4-thiol derivatives as potent selective human monoamine oxidase B inhibitors: Design, SAR development, and biological evaluation” (Bioorg Med Chem Lett, 2021) are described below.

The source made the active and inactive calls. The rule behind the calls is not given here.

On to `C#CCNC1CCc2c(SCc3cccc(Br)c3)cccc21` (stereo unspecified), for which, in data set [1], the IC50 was more than 100 µM.
Regarding `C#CCNC1CCc2c(SCc3cccc(Cl)c3)cccc21` (stereo unspecified), the IC50 in data set [1] was determined as 23.3 µM. For the same compound, in [2], the Ratio IC50 is 0.047.
With `C#CCNC1CCc2c(OCc3cccc(C(F)(F)F)c3)cccc21` (stereo unspecified), the IC50 in data set [1] was 6.41 µM. Also, in [2], the Ratio IC50 was 0.84.
Consider `C#CCNC1CCc2c(SCCc3cccc(F)c3)cccc21` (stereo unspecified), for which half-maximal inhibition in [1] (IC50) was put at 4.3 µM. Besides, the Ratio IC50 in data set [2] came to 1.82.
In [1], `C#CCNC1CCc2c(SCCc3ccc(F)c(F)c3)cccc21` (stereo unspecified) came in with an IC50 of 3.24 µM.
As to `C#CCNC1CCc2c(SCc3ccc(C(F)(F)F)cc3)cccc21` (stereo unspecified), it took 9.68 µM to reach half-maximal inhibition in [1] (IC50). In addition, the Ratio IC50 in data set [2] is 0.096.
Take `C#CCNC1CCc2c(SCc3ccc(F)cc3F)cccc21` (stereo unspecified): half-maximal inhibition in data set [1] (IC50) required 2.43 µM. Besides, the Ratio IC50 in data set [2] was found to be 0.61.
In data set [1], `C#CCNC1CCc2c(SCc3cccc(OC)c3)cccc21` (stereo unspecified) gave an IC50 of 3.19 µM. The Ratio IC50 in data set [2] came to 0.48.
On to `C#CCNC1CCc2c(SCCc3ccc(Cl)c(Cl)c3)cccc21` (stereo unspecified), for which, in data set [1], the half-inhibitory concentration (IC50) was found to be 3.85 µM. Also, the Ratio IC50 in [2] stood at 0.73.
In turn, `C#CCNC1CCc2c(SCc3ccc(Cl)c(Cl)c3)cccc21` (stereo unspecified) registered an IC50 in [1] of 2.84 µM. Also, the Ratio IC50 in data set [2] was found to be 0.026.
As to `C#CCNC1CCc2c(SCc3ccc(F)c(F)c3)cccc21` (stereo unspecified), inhibition in data set [1] was half-maximal at 2.65 µM (IC50). Besides, in data set [2], the Ratio IC50 came out at 0.99.
Regarding `C#CCNC1CCc2c(SCc3ccccc3)cccc21` (stereo unspecified), the IC50 was 6.4 µM in data set [1] and “Not Active” in data set [3]. In addition, the Ratio IC50 in data set [2] is more than 15.6.
Compound `C#CCNC1CCc2c(SCc3cccc(F)c3)cccc21` (stereo unspecified) yielded a half-inhibitory concentration (IC50) in data set [1] of 1.48 µM. Also, in data set [2], the Ratio IC50 was 7.79.
With `C#CCN[C@@H]1CCc2ccccc21` [RASAGILINE], the Activity result was “Non-Toxic” with SH-SY5Y [4], “Non-Toxic” in the data set with BV-2 [5], 30% with BV-2 [6] and 30% with SH-SY5Y [7]. Also, the outcome in the data set on BV-2 [8], with SH-SY5Y [9], in the data set on Mus musculus [10], in the data set with Mus musculus [11] and in the data set on Mus musculus [12] was Active.
Turning to `C#CCNC1CCc2c(SCCc3ccc(Cl)cc3)cccc21` (stereo unspecified), the half-maximal inhibitory concentration (IC50) in [1] came out at 10.8 µM. In addition, the Ratio IC50 in data set [2] came out at 0.085.
`C#CCNC1CCc2c(SCCc3cccc(Br)c3)cccc21` (stereo unspecified): in data set [1], half-maximal inhibition (IC50) was put at 30.5 µM. Besides, the Ratio IC50 in data set [2] is 0.02.
`C#CCNC1CCc2c(SCc3ccc4ccccc4c3)cccc21` (stereo unspecified) registered an IC50 in [1] of 4.95 µM. For the same compound, in data set [2], the Ratio IC50 amounted to 14.
Consider `C#CCNC1CCc2c(SCCc3cccc(OC)c3)cccc21` (stereo unspecified), for which, in [1], 28.7 µM corresponded to half-maximal inhibition (IC50). Also, in [2], the Ratio IC50 is 0.13.
For `C#CCNC1CCc2c(SCc3ccc(OC)cc3)cccc21` (stereo unspecified) the same measures were 1.9 µM and 2.09.
Take `C#CCNC1CCc2c(SCc3ccc(C)cc3)cccc21` (stereo unspecified): the IC50 in [1] stood at 1.56 µM. In data set [2], the Ratio IC50 came to 0.2.
In the case of `C#CCNC1CCc2c(SCCc3ccc(OC)cc3)cccc21` (stereo unspecified), the IC50 in data set [1] amounted to 62 µM. Also, the Ratio IC50 in data set [2] worked out at 13.5.
For `C#CCNC1CCc2c(SCCc3cccc(C)c3)cccc21` (stereo unspecified), the Activity entry in the data set on SH-SY5Y [4] is on record as “Non-Toxic”; in the data set with BV-2 [5] it was “Non-Toxic”; with BV-2 [6] it was 30%; with SH-SY5Y [7] it was 30%. In data set [1], this compound registered an IC50 of 0.00035 µM. Besides, the Ratio IC50 in data set [2] came to 14200. Also, the result in the data set on BV-2 [8], with SH-SY5Y [9], in the data set on Mus musculus [10], in the data set with Mus musculus [11] and with Mus musculus [12] was Active.
With `C#CCNC1CCc2c(SCCc3cccc(C(F)(F)F)c3)cccc21` (stereo unspecified), in [1], the IC50 came out at 3.72 µM. The Ratio IC50 in data set [2] is 0.076.
For `C#CCNC1CCc2c(SCCc3ccc(C(F)(F)F)cc3)cccc21` (stereo unspecified) the same measures were 16.1 µM and 0.54.
The compound `C#CCNC1CCc2c(NCc3cccc(C(F)(F)F)c3)cccc21` (stereo unspecified) had a half-maximal inhibitory concentration (IC50) in data set [1] of 5.11 µM. In addition, the Ratio IC50 in data set [2] was 2.21.
As to `C#CCNC1CCc2c(SCCc3ccc(Br)cc3)cccc21` (stereo unspecified), 85.3 µM corresponded to half-maximal inhibition in data set [1] (IC50). Also, in data set [2], the Ratio IC50 came to 0.015.
`C#CCNC1CCc2c(SCc3ccc(Br)cc3)cccc21` (stereo unspecified) returned an IC50 in data set [1] of 1.31 µM. Further, in data set [2], the Ratio IC50 came out at 0.37.
As to `C#CCNC1CCc2c(SCc3cccc(C)c3)cccc21` (stereo unspecified), the IC50 in data set [1] was more than 100 µM.
On to `C#CCNC1CCc2c(SCCc3ccc(C)cc3)cccc21` (stereo unspecified), for which the IC50 in data set [1] stood at 25.8 µM. In addition, the Ratio IC50 in data set [2] is 0.18.
Consider `C#CCNC1CCc2c(SCc3cccc(C(F)(F)F)c3)cccc21` (stereo unspecified), for which the Activity entry in the data set on SH-SY5Y [4] is given as “Non-Toxic”; in the data set with BV-2 [5] it was “Non-Toxic”; in the data set on BV-2 [6], 30%; with SH-SY5Y [7], 30%. In data set [1], the midpoint of inhibition, the IC50, lay at 0.0047 µM. The Ratio IC50 in data set [2] was determined as 1640. Besides, the outcome with BV-2 [8], with SH-SY5Y [9], in the data set on Mus musculus [10], with Mus musculus [11] and in the data set on Mus musculus [12] was Active.
As for `C#CCNC1CCc2c(SCc3ccc(Cl)cc3Cl)cccc21` (stereo unspecified), the half-maximal inhibitory concentration (IC50) in data set [1] is 3.76 µM. The Ratio IC50 in data set [2] came to 5.93.
In [1], `C#CCNC1CCc2c(SCCc3cccc(Cl)c3)cccc21` (stereo unspecified) returned an IC50 of 82.4 µM.

As a reminder, the IC50 is the concentration at which inhibition is half-maximal. Read a low IC50 as greater potency.
